Measurements from patent US20240308992A1 (Biopolar Youtang(Guangdong) Pharmaceutical Co., Ltd., priority 2021, published 2024).

Biological target: T1, Drak2 (Homo sapiens, UniProt O94768)
T1 sequence (O94768 1-372): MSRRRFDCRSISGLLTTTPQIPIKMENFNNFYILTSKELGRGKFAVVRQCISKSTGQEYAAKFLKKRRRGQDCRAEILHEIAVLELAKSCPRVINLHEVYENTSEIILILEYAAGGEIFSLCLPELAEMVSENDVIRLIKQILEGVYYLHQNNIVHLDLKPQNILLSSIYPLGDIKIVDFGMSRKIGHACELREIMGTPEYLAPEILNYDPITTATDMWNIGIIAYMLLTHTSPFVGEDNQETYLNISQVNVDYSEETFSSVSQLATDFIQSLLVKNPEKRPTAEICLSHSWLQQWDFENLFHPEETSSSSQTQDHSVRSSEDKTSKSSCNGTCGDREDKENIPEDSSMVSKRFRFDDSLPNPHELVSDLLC
Experiment: Drak2 activity test, ADP-Glo kinase assay (Promega)
Type: biochemical
Conditions: inhibition of Drak2 kinase activity, 2 h room temperature, activity range classes, read-out: IC50_Drak2

IC50, < 0.01 µM:
CCCCC(=O)Nc1csc(-c2cncc(-c3ccc(C(=O)N(C)C4CCN(C)CC4)c(OC)c3)n2)c1 [Example B59, 2-methoxy-N-methyl-N-(1-methylpiperidin-4-yl)-4-(6-(4-pentanamidothiophen-2-yl)pyrazin-2-yl)benzamide]

IC50, 1 to 10 µM:
CCCCC(=O)Nc1csc(-c2nccc(-c3ccc(C(=O)N(C)C4CCN(C)CC4)c(OC)c3)n2)c1 [Example B66, 2-methoxy-N-methyl-N-(1-methylpiperidin-4-yl)-4-(2-(4-pentanamidothiophen-2-yl)pyrimidin-4-yl)benzamide]
CCCCC(=O)Nc1csc(-c2cncc(-c3ccc(C(=O)Nc4nccs4)c(OC)c3)n2)c1 [Example B8, 2-methoxy-4-(6-(4-pentanamidothiophen-2-yl)pyrazin-2-yl)-N-(thiazol-2-yl)benzamide]
CCCCC(=O)Nc1csc(-c2cncc(C3=CCN(S(C)(=O)=O)CC3)n2)c1 [Example D8, N-(5-(6-(1-(methylsulfonyl)-1,2,3,6-tetrahydropyridin-4-yl)pyrazin-2-yl)thiophen-3-yl)pentanamide]
COc1ccc(-c2cncc(-c3cc(NC(=O)C4CCC4)cs3)c2C#N)cc1OC [Example C2, N-(5-(4-cyano-5-(3,4-dimethoxyphenyl)pyridin-3-yl)thiophen-3-yl)cyclobutanecarboxamide]

IC50, 0.101 to 1 µM:
CCCCC(=O)Nc1csc(-c2cncc(-c3cc(OC)ccc3OC)n2)c1 [Example A13, N-(5-(6-(2,5-dimethoxyphenyl)pyrazin-2-yl)thiophen-3-yl)pentanamide]
CCCCC(=O)Nc1csc(-c2cncc(-c3ccc(C(=O)Nc4ncc[nH]4)c(OC)c3)n2)c1 [Example B5, 2-methoxy-4-(6-(4-pentanamidothiophen-2-yl)pyrazin-2-yl)-N-(1H-imidazol-2-yl) benzamide]
CCCCC(=O)Nc1csc(-c2cncc(-c3ccc(-c4nc(=O)o[nH]4)c(OC)c3)n2)c1 [Example A39, N-(5-(6-(3-methoxy-4-(5-oxo-2,5-dihydro-1,2,4-oxadiazol-3-yl)phenyl)pyrazin-2-yl)thiophen-3-yl)pentanamide]
CCCCC(=O)Nc1csc(-c2cncc(-c3ccc(C(=O)Nc4cn(C)c(C(=O)OC)n4)c(OC)c3)n2)c1 [Example B22, methyl 4-(2-methoxy-4-(6-(4-pentanamidothiophen-2-yl)pyrazin-2-yl)benzamido)-1-methyl-1H-imidazole-2-carboxylate]
COc1ccc(-c2cncc(-c3cc(NC(=O)C4CC4)cs3)n2)cc1OC [Example A6, N-(5-(6-(3,4-dimethoxyphenyl)pyrazin-2-yl)thiophen-3-yl)cyclopropanecarboxamide]
CCCCC(=O)Nc1csc(-c2cncc(-c3ccc(C#N)c(OC)c3)n2)c1 [Example A20, N-(5-(6-(4-cyano-3-methoxyphenyl)pyrazin-2-yl)thiophen-3-yl)pentanamide]
CCCCC(=O)Nc1csc(-c2cncc(-c3ccc(OC)c(OC)c3)n2)c1 [Example A1, N-(5-(6-(3,4-dimethoxyphenyl)pyrazin-2-yl)thiophen-3-yl)pentanamide]
CCCCC(=O)Nc1csc(-c2cncc(-c3ccc(S(C)(=O)=O)cc3)n2)c1 [Example A40, N-(5-(6-(4-(methylsulfonyl)phenyl)pyrazin-2-yl)thiophen-3-yl)pentanamide]
CCCCNC(=O)c1csc(-c2cncc(-c3ccc(OC)c(OC)c3)n2)c1 [Example 182, N-butyl-5-[6-(3,4-dimethoxyphenyl)pyrazin-2-yl] thiophen-3-formamide]

IC50, > 10 µM:
CCCCC(=O)Nc1csc(-c2cccc(-c3ccc(C(=O)N(C4CC4)C4CCN(C)CC4)c(OC)c3)n2)c1 [Example B75, N-cyclopropyl-2-methoxy-N-(1-methylpiperidin-4-yl)-4-(6-(4-pentanamidothiophen-2-yl)pyridin-2-yl)benzamide]
COc1ccc(-c2cncc(-c3nc(NC(=O)OC(C)(C)C)cs3)n2)cc1OC [Example D3, tert-butyl (2-(6-(3,4-dimethoxyphenyl)pyrazin-2-yl)thiazol-4-yl)carbamate]

IC50, 0.011 to 0.1 µM:
COc1cc(-c2cncc(-c3cc(NC(=O)CC4CCC4)cs3)n2)ccc1OCCc1cnccn1 [Example 174, 2-cyclobutyl-N-{5-[6-(3-methoxy-4-{[2-(pyrazin-2-yl)ethyl]oxy}phenyl)pyrazin-2-yl]thiophen-3-yl} acetamide]
COc1cc(-c2cncc(-c3cc(NC(=O)CC4CCC4)cs3)n2)ccc1S(=O)(=O)N1CCOCC1 [Example B105, 2-cyclobutyl-N-(5-(6-(3-methoxy-4-(morpholinosulfonyl)phenyl)pyrazin-2-yl)thiophen-3-yl)acetamide]
COc1cc(-c2cncc(-c3cc(NC(=O)C(C)(C)C4CC(F)(F)C4)cs3)n2)ccc1C(=O)N(C)C1CC2(C1)CN(C)C2 (stereo not shown) [Example 203, 4-[6-(4-{[2-(3,3-difluorocyclobutyl)-2-methylpropionyl]amino}thiophen-2-yl)pyrazin-2-yl]-2-methoxy-N-methyl-N-(2-methyl-2-azaspiro [3.3]hept-6-yl) benzamide]
COc1ccc(-c2cncc(-c3cc(NC(=O)CC4CCC4)cs3)n2)cc1OC [Example A32, 2-cyclobutyl-N-(5-(6-(3,4-dimethoxyphenyl)pyrazin-2-yl)thiophen-3-yl)acetamide]
COc1cc(-c2cncc(-c3cc(NC(=O)CC4CCC4)cs3)n2)ccc1OCCN1CCN(C2CCN(C)CC2)CC1 [Example 177, 2-cyclobutyl-N-(5-{6-[3-methoxy-4-({2-[4-(1-methylhexahydropyridin-4-yl)piperazin-1-yl]ethyl}oxy)phenyl]pyrazin-2-yl}thiophen-3-yl) acetamide]
CCCCC(=O)Nc1csc(-c2cncc(-c3ccc(C(=O)N4CCOCC4)c(OC)c3)n2)c1 [Example B29, N-(5-(6-(3-methoxy-4-(morpholine-4-carbonyl)phenyl)pyrazin-2-yl)thiophen-3-yl)pentanamide]
CCCCC(=O)Nc1csc(-c2cncc(-c3ccc(O)c(OC)c3)n2)c1 [Example 181, N-{5-[6-(4-hydroxy-3-methoxyphenyl)pyrazin-2-yl]thiophen-3-yl}pentanamide]
COc1cc(-c2cncc(-c3cc(NC(=O)CC4CCC4)cs3)n2)ccc1C(=O)N(C)C1CC2(C1)CN(C)C2 [Example B93, 4-(6-(4-(2-cyclobutylacetamido)thiophen-2-yl)pyrazin-2-yl)-2-methoxy-N-methyl-N-(2-methyl-2-azaspiro[3.3]heptan-6-yl)benzamide]
COc1cc(-c2cncc(-c3cc(NC(=O)CC4CC(F)(F)C4)cs3)n2)ccc1OCCN1CCOCC1 [Example 185, 2-(3,3-difluorocyclobutyl)-N-(5-(6-(3-methoxy-4-(2-morpholinylethoxy)phenyl)pyrazin-2-yl)thiophen-3-yl) acetamide]
COc1cc(-c2cncc(-c3cc(NC(=O)CC4CC4)cs3)n2)ccc1C(=O)N1CCC(OC)CC1 [Example B48, 2-cyclopropyl-N-(5-(6-(3-methoxy-4-(4-methoxypiperidine-1-carbonyl)phenyl)pyrazin-2-yl)thiophen-3-yl)acetamide]
CCCCC(=O)Nc1csc(-c2cncc(-c3cncs3)n2)c1 [Example 217, N-{5-[6-(1,3-thiazole-5-yl)pyrazin-2-yl]thiophen-3-yl} pentanamide]
COc1cc(-c2cncc(-c3cc(NC(=O)C4CC45CCC5)cs3)n2)ccc1C(=O)N(C)C1CCN(C)CC1 (stereo not shown) [Example B84, N-(5-(6-(3-methoxy-4-(methyl(1-methylpiperidin-4-yl)carbamoyl)phenyl)pyrazin-2-yl)thiophen-3-yl)spiro[2.3]hexane-1-carboxamide]
COc1cc(-c2cncc(-c3cc(NC(=O)C(C)(C)C4CCC4)cs3)n2)ccc1C(=O)N(C)C1CCN(C)CC1 [Example B100, 4-(6-(4-(2-cyclobutyl-2-methylpropanamido)thiophen-2-yl)pyrazin-2-yl)-2-methoxy-N-methyl-N-(1-methylpiperidin-4-yl)benzamide]
COc1cc(-c2cncc(-c3cc(NC(=O)CC4CCC4)cs3)n2)ccc1S(=O)(=O)N(C)CCN(C)C [Example B101, 2-cyclobutyl-N-(5-(6-(4-(N-(2-(dimethylamino)ethyl)-N-methylsulfamoyl)-3-methoxyphenyl)pyrazin-2-yl)thiophen-3-yl)acetamide]
CCCCC(=O)Nc1csc(-c2cncc(-c3ccc(C(=O)N(C4CC4)C4CCN(C5CC5)CC4)c(OC)c3)n2)c1 [Example B78, N-cyclopropyl-N-(1-cyclopropylpiperidin-4-yl)-2-methoxy-4-(6-(4-pentanamidothiophen-2-yl)pyrazin-2-yl)benzamide]
COc1cc(-c2cncc(-c3cc(NC(=O)CC4CCC4)cs3)n2)ccc1O [Example 183]
COc1cc(-c2cncc(-c3cc(NC(=O)CC4CCC4)cs3)n2)ccc1OCCN1CCOCC1 [Example 169, 2-cyclobutyl-N-(5-(6-(3-methoxy-4-(2-morpholinylethoxy)phenyl)pyrazin-2-yl)thiophen-3-yl) acetamide]
COc1cc(-c2cncc(-c3cc(NC(=O)CC4CCC4)cs3)n2)ccc1OCC(=O)N1CCN(C2CCN(C)CC2)CC1 [Example 192, 2-Cyclobutyl-N-(5-{6-[3-methoxy-4-({2-[4-(1-methylhexahydropyridin-4-yl)piperazin-1-yl]-2-oxoethyl}oxy)phenyl]pyrazin-2-yl}thiophen-3-yl) acetamide]
